Here are results for 35 molecules from US10703764B2, “Benzopiperazine compositions as BET bromodomain inhibitors” (FORMA Therapeutics, Inc., priority 2013, dated 2020).

The structures appear in SMILES notation. Where only a bound is given, the exact number is not on record here.

One experiment addresses T1, BRD4 BD2 (Homo sapiens, UniProt O60885).
T1 construct: made in house
Kind of experiment: AlphaScreen binding assay, BRD4 Bromodomain 2. The procedure, abridged: (§1)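 An AlphaScreen competition format was used with His-BRD4 BD1 or BD2 and biotin-H4 K5/8/12/16-acetyl peptide, each at matched final levels of 50 nM (BD1) or 100 nM (BD2). Incubation in HEPES/NaCl buffer with 0.1% BSA and 0.01% Triton X-100 ran ≥1 h before IC50 determination.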
(In general: Alpha assays give light when donor and acceptor beads are brought close together.)

In another experiment the target is T2, BRD4 BD1 (Homo sapiens, UniProt O60885).
T2 construct: made in house
Kind of experiment: AlphaScreen binding assay, BRD4 Bromodomain 1. The procedure, abridged: as §1

Usually IC50 stands for the point on the concentration scale where inhibition reaches its midpoint. For the molecule `CC(=O)N1c2ccccc2N(C(=O)c2cccc(Cl)c2)C[C@@H]1C` [Example I-718], the results for the IC50 at BRD4 BD2 and at BRD4 BD1 were over 500 nM and over 10000 nM, respectively.
For `COC(=O)N1c2ccc(-c3cnn(CCN(C)C)c3)cc2N(C(=O)OC(C)C)C[C@@H]1C` [Example I-645] the same measures were over 500 nM and 1000 to 10000 nM.
In the case of `CC(=O)N1c2ccc(-c3ccccc3NS(C)(=O)=O)cc2N(C(=O)c2ccco2)C[C@@H]1C` [Example I-827], the figures for the 50% inhibitory concentration (IC50) at BRD4 BD2 and on BRD4 BD1 were over 500 nM and over 10000 nM, respectively.
For `CC(=O)N1c2ccc(-c3ccc(S(C)(=O)=O)cc3)cc2N(C(=O)c2cc3cc(Cl)ccc3[nH]2)CC1C` (stereo not shown) [Example I-785] the same measures were 50 to 500 nM and 1000 to 10000 nM.
With `CC(C)OC(=O)N1C[C@H](C)N(C(=O)C2CC2)c2ccc(-c3ccc(C(=O)NCc4ncco4)cc3)cc21` [Example I-585], the half-inhibitory concentration (IC50) at BRD4 BD2 is over 500 nM; on BRD4 BD1, 1000 to 10000 nM.
Consider `CC(=O)N1c2ccccc2N(C(=O)CN2CCS(=O)(=O)CC2)C[C@@H]1C` [Example I-767], for which the figures for the half-maximal inhibitory concentration (IC50) at BRD4 BD2 and at BRD4 BD1 were over 500 nM and over 10000 nM, respectively.
For `CC(=O)N1c2ccccc2N(S(=O)(=O)c2cccc(C)c2)C[C@@H]1C` [Example I-948] the same measures were over 500 nM and over 10000 nM.
For `CCCn1cc(-c2ccc3c(c2)N(C(=O)c2ccco2)C[C@H](C)N3C(=O)C(F)(F)F)cn1` [Example I-363] the same measures were 50 to 500 nM and 1000 to 10000 nM.
Take `CC(=O)N1c2ccccc2N(Cc2ccccn2)C[C@@H]1C` [Example I-913]: the IC50 on BRD4 BD2 is over 500 nM; at BRD4 BD1, over 10000 nM.
On to `CC(=O)N1c2ccc(-c3ccc(S(C)(=O)=O)cc3)cc2N(C(=O)Nc2ccc(Cl)cc2)C[C@@H]1C` [Example I-975], for which the half-maximal inhibitory concentration (IC50) was over 500 nM at BRD4 BD2 and over 10000 nM at BRD4 BD1.
For `CC(=O)N1c2ccc(-c3cnn(CC(=O)N4CCC4)c3)cc2N(C(=O)C2CC2)C[C@@H]1C` [Example I-672] the same measures were 50 to 500 nM and 1000 to 10000 nM.
As to `CC(=O)N1c2ccc(-c3ccc(S(C)(=O)=O)cc3)cc2N(C(=O)CC2CCCC2)C[C@@H]1C` [Example I-246], the 50% inhibitory concentration (IC50) at BRD4 BD2 was 50 to 500 nM; at BRD4 BD1, 1000 to 10000 nM.
For `CC(=O)N1c2ccc(-c3cnn(CCN4CCCC4=O)c3)cc2N(C(=O)C2CC2)C[C@@H]1C` [Example I-660] the same measures were 50 to 500 nM and 1000 to 10000 nM.
The corresponding values for `CC(=O)N1c2ccc(-c3ncccn3)cc2N(C(=O)c2ccco2)C[C@@H]1C` [Example I-383] are 50 to 500 nM and 1000 to 10000 nM.
As for `COC(=O)N1c2ccc(-c3ccc(CS(N)(=O)=O)cc3)cc2N(C(=O)C2CC2)C[C@@H]1C` [Example I-460], the IC50 lay within 50 to 500 nM at BRD4 BD2 and 1000 to 10000 nM on BRD4 BD1.
The corresponding values for `CC(=O)N1c2ccc(-c3ccc(S(C)(=O)=O)cc3)cc2N(c2nccc(-c3ccccc3)n2)C[C@@H]1C` [Example I-49, (S)-1-(2-methyl-6-(4-(methylsulfonyl)phenyl)-4-(4-phenylpyrimidin-2-yl)-3,4-dihydroquinoxalin-1(2H)-yl)ethanone] are over 500 nM and 1000 to 10000 nM.
The corresponding values for `CC(=O)N1c2ccc(-c3cnn(CC(=O)N4CCCCC4)c3)cc2N(C(=O)C2CC2)C[C@@H]1C` [Example I-661] are 50 to 500 nM and 1000 to 10000 nM.
For `CC(=O)N1c2ccc(-c3ccc(S(C)(=O)=O)cc3)cc2N(c2ncc3ccccc3n2)C[C@@H]1C` [Example I-48, (S)-1-(2-methyl-6-(4-(methylsulfonyl)phenyl)-4-(quinazolin-2-yl)-3,4-dihydroquinoxalin-1(2H)-yl)ethanone] the same measures were 50 to 500 nM and 1000 to 10000 nM.
As to `CC(=O)N1c2ccc(-c3ccc4c(c3)n(C)c(=O)n4C)cc2N(C(=O)c2ccco2)C[C@@H]1C` [Example I-395], the concentration for half-maximal inhibition (IC50) was under 50 nM on BRD4 BD2 and 100 to 1000 nM at BRD4 BD1.
On to `CC(=O)N1c2ccccc2N(S(=O)(=O)c2ccccc2F)C[C@@H]1C` [Example I-931], for which the IC50 at BRD4 BD2 is over 500 nM; on BRD4 BD1 it was over 10000 nM.
The corresponding values for `CC(=O)N1c2ccc(-c3ccc(S(C)(=O)=O)cc3)cc2N(C(=O)OC2COC2)C[C@@H]1C` [Example I-497] are over 500 nM and 1000 to 10000 nM.
The corresponding values for `C#CCOC(=O)N1C[C@H](C)N(C(C)=O)c2ccc(-c3ccc(S(C)(=O)=O)cc3)cc21` [Example I-240] are 50 to 500 nM and 1000 to 10000 nM.
The corresponding values for `CC(=O)N1c2ccccc2N(S(=O)(=O)Cc2ccc(Cl)cc2)C[C@@H]1C` [Example I-962] are over 500 nM and over 10000 nM.
Turning to `CC(=O)N1c2ccc(N(C)c3ccccc3)cc2N(C(=O)c2ccco2)C[C@@H]1C` [Example I-992], the concentration for half-maximal inhibition (IC50) at BRD4 BD2 is over 500 nM; at BRD4 BD1 it was 1000 to 10000 nM.
For `CC(=O)N1c2ccc(-c3cccc4c3cnn4C)cc2N(C(=O)c2ccco2)C[C@@H]1C` [Example I-858] the same measures were 50 to 500 nM and 1000 to 10000 nM.
For `CC(=O)N1c2ccc(-c3cnn(C4COC4)c3)cc2N(C(=O)OCC2CC2(F)F)C[C@@H]1C` (stereo partly drawn) [Example I-75, (3S)-(2,2-difluorocyclopropyl)methyl 4-acetyl-3-methyl-7-(1-(oxetan-3-yl)-1H-pyrazol-4-yl)-3,4-dihydroquinoxaline-1(2H)-carboxylate] the same measures were over 500 nM and 1000 to 10000 nM.
Consider `CC(=O)N1c2ccc(-c3cnn(C4COC4)c3)cc2N(C(=O)CC2CC2)C[C@@H]1C` [Example I-107, (S)-1-(4-acetyl-3-methyl-7-(1-(oxetan-3-yl)-1H-pyrazol-4-yl)-3,4-dihydroquinoxalin-1(2H)-yl)-2-cyclopropylethanone], for which the concentration for half-maximal inhibition (IC50) at BRD4 BD2 was 50 to 500 nM; on BRD4 BD1, 1000 to 10000 nM.
For `CC(=O)N1c2ccc(-c3ccc(-c4nnco4)cc3)cc2N(C(=O)c2ccco2)C[C@@H]1C` [Example I-416] the same measures were under 50 nM and 1000 to 10000 nM.
The corresponding values for `CC(=O)N1c2ccc(-c3ccc(S(C)(=O)=O)cc3)cc2N(C(=O)c2ccc(F)cc2)C[C@@H]1C` [Example I-878] are 50 to 500 nM and over 10000 nM.
The corresponding values for `CC(=O)N1c2ccccc2N(Cc2cccc3c2OCO3)C[C@@H]1C` [Example I-921] are 50 to 500 nM and over 10000 nM.
On to `COc1ncc(F)cc1OC(=O)N1C[C@H](C)N(C(C)=O)c2ccc(-c3cnn(C4CC4)c3)cc21` [Example I-1208], for which the IC50 at BRD4 BD2 fell in the range of 50 to 500 nM; on BRD4 BD1, 1000 to 10000 nM.
For `CC(=O)N1c2ncc(-c3ccc(C(=O)N(C)C)cc3)cc2N(C(=O)c2ccco2)C[C@@H]1C` [Example I-272] the same measures were 50 to 500 nM and 1000 to 10000 nM.
The corresponding values for `CC(=O)N1c2ccc(-c3ccc(F)c(C(=O)NC(C)C)c3)cc2N(C(=O)c2ccco2)C[C@@H]1C` [Example I-829] are under 50 nM and 1000 to 10000 nM.
The corresponding values for `CC(=O)N1c2ccc(-c3ccc(S(C)(=O)=O)cc3)cc2N(C(=O)c2cc3ccc(Cl)cc3[nH]2)CC1C` (stereo not shown) [Example I-787] are 50 to 500 nM and 1000 to 10000 nM.
As to `CC(=O)N1c2ccc(-c3ccc(S(C)(=O)=O)cc3)cc2N(C(=O)c2ccc(CN(C)C)o2)C[C@@H]1C` [Example I-984], the results for the IC50 at BRD4 BD2 and on BRD4 BD1 were 50 to 500 nM and over 10000 nM, respectively.
